The source of these data is patent publication US20190175744A1, “INSULIN-INCRETIN CONJUGATES” (Merck Sharp & Dohme Corp., priority 2016, published 2019).

The target in experiment [1] is T1, human GCGR (Homo sapiens, UniProt P47871).
T1 construct: expressed in transfected cells; grown with Blasticidin and Hygromycin
Kind of experiment: cAMP activity assay, cells expressing human GCGR.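 For all read-outs here: cAMP production read by luminescence after one hour of peptide exposure at room temperature, EC50 from logistic curve fit, native glucagon and GLP-1 as control peptides.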 The class given is cell-based. Particulars: for GCGR/GLP1R ratio: Table 5, ratio of hGCGR EC50 to hGLP1R EC50.
Protocol: Activity of the incretin peptides or the conjugates at the Glucagon receptor (GCGR) and GLP-1 receptor (GLP1R) may be measured in a cAMP activity assay as follows.
Peptides are dissolved in 100% DMSO and serially diluted to generate 10 point titrations. The peptide solutions are then transferred into 384-well assay plates (150 nL/well). Assay ready frozen cells expressing human GLP1R or human GCGR are suspended in growth media consisting of DMEM medium (GIBCO), 10% FBS (GIBCO), 1×NEAA(GIBCO), 1×P/S (GIBCO), 10 μg/mL Blasticidin (GIBCO) and 200 μg/mL Hygromycin (GIBCO). […] The cell suspensions (15 μL) are then added to the assay plates containing the peptide solutions (30,000 cells/well for human GCGR; 10,000 cells/well for human GLP1R). The cells are incubated for one hour at room temperature in the dark.
Production of cAMP may be determined using HitHunterr cAMPXS kits (DiscoverX) following the manufacturer's protocol. The plates are incubated for overnight at room temperature in the dark. Luminescence may be measured using an EnVision Multilabel plate reader (Perkin Elmer). Native GLP-1 and Glucagon (Bachem) may be used as control peptides. EC50 values may be calculated using uses a 4 parameter logistic fit based on the Levenberg-Marquardt algorithm.

In experiment [2] the target is human GLP1R (Homo sapiens, UniProt P43220). Kind of experiment: cAMP activity assay, cells expressing human GLP1R. The class given is cell-based.
[3] abbreviates: Table 5, incretin peptides, cAMP, read-out: hGLP1R EC50.

Like-named read-outs stand apart in the source and are kept apart here.

T1 sequence (P47871 26-477): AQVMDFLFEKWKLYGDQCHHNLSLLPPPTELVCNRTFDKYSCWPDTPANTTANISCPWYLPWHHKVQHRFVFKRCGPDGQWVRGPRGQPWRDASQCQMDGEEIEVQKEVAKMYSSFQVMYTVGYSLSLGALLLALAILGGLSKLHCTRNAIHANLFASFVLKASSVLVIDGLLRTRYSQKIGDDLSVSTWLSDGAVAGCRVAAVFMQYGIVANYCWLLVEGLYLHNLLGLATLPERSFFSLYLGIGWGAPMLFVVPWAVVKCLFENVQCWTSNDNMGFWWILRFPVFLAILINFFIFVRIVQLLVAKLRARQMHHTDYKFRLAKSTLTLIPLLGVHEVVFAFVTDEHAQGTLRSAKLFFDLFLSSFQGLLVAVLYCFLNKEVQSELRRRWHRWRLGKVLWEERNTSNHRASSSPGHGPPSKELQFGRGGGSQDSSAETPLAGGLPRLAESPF
Sequence of human GLP1R (P43220 24-463): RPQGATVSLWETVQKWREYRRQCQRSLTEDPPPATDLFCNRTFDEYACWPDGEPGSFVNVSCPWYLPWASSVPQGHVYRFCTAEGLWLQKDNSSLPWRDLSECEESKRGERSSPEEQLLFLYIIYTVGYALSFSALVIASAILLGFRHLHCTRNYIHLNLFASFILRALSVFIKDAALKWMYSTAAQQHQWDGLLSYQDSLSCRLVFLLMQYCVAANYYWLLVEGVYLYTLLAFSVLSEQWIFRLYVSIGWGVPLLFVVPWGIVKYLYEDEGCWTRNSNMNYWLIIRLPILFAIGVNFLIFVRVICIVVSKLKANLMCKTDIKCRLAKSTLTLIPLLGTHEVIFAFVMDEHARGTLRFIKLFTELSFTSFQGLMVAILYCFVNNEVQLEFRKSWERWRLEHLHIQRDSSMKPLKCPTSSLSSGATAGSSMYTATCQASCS

Consider `CC(C)C[C@H](NC(=O)[C@H](Cc1c[nH]c2ccccc12)NC(=O)[C@H](CCC(N)=O)NC(=O)[C@@H](NC(=O)[C@H](Cc1ccccc1)NC(=O)[C@H](CC(=O)O)NC(=O)[C@H](CCC(N)=O)NC(=O)[C@H](C)NC(=O)[C@H](C)NC(=O)[C@H](CCCNC(=N)N)NC(=O)C(C)(C)NC(=O)[C@H](CC(=O)O)NC(=O)[C@H](CC(C)C)NC(=O)[C@H](Cc1ccc(O)cc1)NC(=O)[C@H](CCCCN)NC(=O)[C@H](CO)NC(=O)[C@H](Cc1ccc(O)cc1)NC(=O)[C@H](CC(=O)O)NC(=O)[C@H](CO)NC(=O)[C@@H](NC(=O)[C@H](Cc1ccccc1)NC(=O)[C@@H](NC(=O)CNC(=O)[C@H](CCC(N)=O)NC(=O)C(C)(C)NC(=O)[C@@H](N)Cc1c[nH]cn1)[C@@H](C)O)[C@@H](C)O)C(C)C)C(=O)N[C@@H](CC(C)C)C(=O)N[C@@H](CC(=O)O)C(=O)N[C@H](C(=O)N[C@@H](CCCCN)C(=O)N[C@@H](CCCCNC(=O)COCCOCCNC(=O)COCCOCCNC(=O)CC[C@H](NC(=O)CCCCCCCCCCCCCCCN=[N+]=[N-])C(=O)O)C(N)=O)[C@@H](C)O` [PEP28], for which, in experiment [1], the EC50 turned out to be 0.17 nM and the GCGR/GLP1R ratio amounted to 1.1. Also, the EC50 in experiment [2] turned out to be 0.16 nM.
As to `CCCCCCCCCCCCCCCC(=O)N[C@@H](CCC(=O)N[C@@H](CCC(=O)NCCCC[C@H](NC(=O)[C@H](CC(=O)O)NC(=O)[C@H](CO)NC(=O)[C@@H](NC(=O)[C@H](Cc1ccccc1)NC(=O)[C@@H](NC(=O)CNC(=O)[C@H](CCC(N)=O)NC(=O)[C@@H](CO)NC(=O)[C@@H](N)Cc1c[nH]cn1)[C@@H](C)O)[C@@H](C)O)C(=O)N[C@@H](CO)C(=O)N[C@@H](CCCCN)C(=O)N[C@@H](Cc1ccc(O)cc1)C(=O)N[C@@H](CC(C)C)C(=O)N[C@@H](CC(=O)O)C(=O)N[C@@H](CCC(=O)O)C(=O)N[C@@H](CCCNC(=N)N)C(=O)N[C@@H](C)C(=O)N[C@@H](C)C(=O)N[C@@H](CCC(N)=O)C(=O)N[C@@H](CC(=O)O)C(=O)N[C@@H](Cc1ccccc1)C(=O)N[C@H](C(=O)N[C@@H](CCCCN=[N+]=[N-])C(=O)N[C@@H](Cc1c[nH]c2ccccc12)C(=O)N[C@@H](CC(C)C)C(=O)N[C@@H](CC(C)C)C(=O)N[C@@H](CCC(=O)N[C@H](C(N)=O)[C@@H](C)O)C(=O)O)C(C)C)C(=O)O)C(=O)O` [PEP11], in experiment [1], the EC50 amounted to 0.03 nM and the GCGR/GLP1R ratio turned out to be 0.4. Further, the EC50 in experiment [2] (setting [3]) came out at 0.06 nM.
On the same counts, the results for `CCCCCCCCCCCCCCCC(=O)N[C@@H](CCC(=O)N[C@@H](CCC(=O)NCCCC[C@H](NC(=O)[C@H](CC(=O)O)NC(=O)[C@H](CO)NC(=O)[C@@H](NC(=O)[C@H](Cc1ccccc1)NC(=O)[C@@H](NC(=O)CNC(=O)[C@H](CCC(N)=O)NC(=O)[C@@H](CO)NC(=O)[C@@H](N)Cc1c[nH]cn1)[C@@H](C)O)[C@@H](C)O)C(=O)N[C@@H](CO)C(=O)N[C@@H](CCCCN)C(=O)N[C@@H](Cc1ccc(O)cc1)C(=O)N[C@@H](CC(C)C)C(=O)N[C@@H](CC(=O)O)C(=O)N[C@@H](CCC(=O)O)C(=O)N[C@@H](CCCNC(=N)N)C(=O)N[C@@H](C)C(=O)N[C@@H](C)C(=O)N[C@@H](CCCCNC(=O)COCCOCCNC(=O)COCCOCCNC(=O)CCCCN=[N+]=[N-])C(=O)N[C@@H](CC(=O)O)C(=O)N[C@@H](Cc1ccccc1)C(=O)N[C@H](C(=O)N[C@@H](CCC(N)=O)C(=O)N[C@@H](Cc1c[nH]c2ccccc12)C(=O)N[C@@H](CC(C)C)C(=O)N[C@@H](CC(C)C)C(=O)N[C@@H](CC(=O)O)C(=O)N[C@H](C(N)=O)[C@@H](C)O)C(C)C)C(=O)O)C(=O)O` [PEP17] are 0.06 nM, 1.2 and 0.05 nM.
Consider `CC(C)C[C@H](NC(=O)[C@H](Cc1ccc(O)cc1)NC(=O)[C@H](CCCCN)NC(=O)[C@H](CO)NC(=O)[C@H](CCCCNC(=O)COCCOCCNC(=O)COCCOCCNC(=O)CC[C@H](NC(=O)CCCCCCCCCCCCCCCCC(=O)O)C(=O)O)NC(=O)[C@H](CC(=O)O)NC(=O)[C@H](CO)NC(=O)[C@@H](NC(=O)[C@H](Cc1ccccc1)NC(=O)[C@@H](NC(=O)CNC(=O)[C@H](CCC(N)=O)NC(=O)[C@@H](CO)NC(=O)[C@@H](N)Cc1c[nH]cn1)[C@@H](C)O)[C@@H](C)O)C(=O)N[C@@H](CC(=O)O)C(=O)N[C@@H](CCC(=O)O)C(=O)N[C@@H](CCCNC(=N)N)C(=O)N[C@@H](C)C(=O)N[C@@H](C)C(=O)N[C@@H](CCC(N)=O)C(=O)N[C@@H](CC(=O)O)C(=O)N[C@@H](Cc1ccccc1)C(=O)N[C@H](C(=O)N[C@@H](CCCCN=[N+]=[N-])C(=O)N[C@@H](Cc1c[nH]c2ccccc12)C(=O)N[C@@H](CC(C)C)C(=O)N[C@@H](CC(C)C)C(=O)N[C@@H](CC(=O)O)C(=O)N[C@H](C(N)=O)[C@@H](C)O)C(C)C` [PEP29], for which, in experiment [1], the GCGR/GLP1R ratio was 1.0.
As to `CSCC[C@H](NC(=O)[C@H](CC(C)C)NC(=O)[C@H](Cc1c[nH]c2ccccc12)NC(=O)[C@H](CCC(N)=O)NC(=O)[C@@H](NC(=O)[C@H](Cc1ccccc1)NC(=O)[C@H](CC(=O)O)NC(=O)[C@H](CCC(N)=O)NC(=O)[C@H](C)NC(=O)[C@H](C)NC(=O)[C@H](CCCNC(=N)N)NC(=O)C(C)(C)NC(=O)[C@H](CC(=O)O)NC(=O)[C@H](CC(C)C)NC(=O)[C@H](Cc1ccc(O)cc1)NC(=O)[C@H](CCCCN)NC(=O)[C@H](CO)NC(=O)[C@H](CCCCN)NC(=O)[C@H](CC(=O)O)NC(=O)[C@H](CO)NC(=O)[C@@H](NC(=O)[C@H](Cc1ccccc1)NC(=O)[C@@H](NC(=O)CNC(=O)[C@H](CCC(N)=O)NC(=O)C(C)(C)NC(=O)[C@@H](N)Cc1c[nH]cn1)[C@@H](C)O)[C@@H](C)O)C(C)C)C(=O)N[C@@H](CC(N)=O)C(=O)N[C@H](C(=O)N[C@@H](CCCCN)C(=O)N[C@@H](CCC(N)=O)C(=O)N[C@@H](CCCCN=[N+]=[N-])C(N)=O)[C@@H](C)O` [PEP72], the EC50 in experiment [1] (Table 5, incretin peptides, cAMP, read-out: hGCGR_EC50) is 3.9 nM; in experiment [2] (setting [3]), 0.04 nM. For the same molecule, the GCGR/GLP1R ratio in experiment [1] is given as 97.5.
As to `CCCCCCCCCCCCCCCC(=O)N[C@@H](CCC(=O)N[C@@H](CCC(=O)NCCCC[C@H](NC(=O)[C@H](CC(=O)O)NC(=O)[C@H](CO)NC(=O)[C@@H](NC(=O)[C@H](Cc1ccccc1)NC(=O)[C@@H](NC(=O)CNC(=O)[C@H](CCC(N)=O)NC(=O)[C@@H](CO)NC(=O)[C@@H](N)Cc1c[nH]cn1)[C@@H](C)O)[C@@H](C)O)C(=O)N[C@@H](CO)C(=O)N[C@@H](CCCCN)C(=O)N[C@@H](Cc1ccc(O)cc1)C(=O)N[C@@H](CC(C)C)C(=O)N[C@@H](CC(=O)O)C(=O)N[C@@H](CCC(=O)O)C(=O)N[C@@H](CCCNC(=N)N)C(=O)N[C@@H](C)C(=O)N[C@@H](C)C(=O)N[C@@H](CCC(N)=O)C(=O)N[C@@H](CC(=O)O)C(=O)N[C@@H](Cc1ccccc1)C(=O)N[C@H](C(=O)N[C@@H](CCC(N)=O)C(=O)N[C@@H](Cc1c[nH]c2ccccc12)C(=O)N[C@@H](CC(C)C)C(=O)N[C@@H](CC(C)C)C(=O)N[C@@H](CC(=O)O)C(=O)N[C@H](C(N)=O)[C@@H](C)O)C(C)C)C(=O)O)C(=O)O` [PEP76, reference compound], the “Ratio GCGR/GLP1R” value in experiment [1] (Table 7, control molecules) amounted to 1.3.
With `CC(C)C[C@H](NC(=O)[C@H](Cc1ccc(O)cc1)NC(=O)[C@H](CCCCN)NC(=O)[C@H](CO)NC(=O)[C@H](Cc1ccc(O)cc1)NC(=O)[C@H](CC(=O)O)NC(=O)[C@H](CO)NC(=O)[C@@H](NC(=O)[C@H](Cc1ccccc1)NC(=O)[C@@H](NC(=O)CNC(=O)[C@H](CCC(N)=O)NC(=O)C(C)(C)NC(=O)[C@@H](N)Cc1c[nH]cn1)[C@@H](C)O)[C@@H](C)O)C(=O)N[C@@H](CC(=O)O)C(=O)N[C@@H](C)C(=O)N[C@@H](CCCNC(=N)N)C(=O)N[C@@H](C)C(=O)N[C@@H](C)C(=O)N[C@@H](CCCCNC(=O)COCCOCCNC(=O)COCCOCCNC(=O)CC[C@H](NC(=O)CCCCCCCCCCCCCCCCCCC(=O)O)C(=O)O)C(=O)N[C@@H](CC(=O)O)C(=O)N[C@@H](Cc1ccccc1)C(=O)N[C@H](C(=O)N[C@@H](CCCCN=[N+]=[N-])C(=O)N[C@@H](Cc1c[nH]c2ccccc12)C(=O)N[C@@H](CC(C)C)C(=O)N[C@@H](CCS(C)(=O)=O)C(=O)N[C@@H](CC(=O)O)C(=O)N[C@H](C(N)=O)[C@@H](C)O)C(C)C` [PEP31], the GCGR/GLP1R ratio in experiment [1] was 3.1.
On to `CC(C)C[C@H](NC(=O)[C@H](Cc1ccc(O)cc1)NC(=O)[C@H](CCCCN)NC(=O)[C@H](CO)NC(=O)[C@H](CCCCN)NC(=O)[C@H](CC(=O)O)NC(=O)[C@H](CO)NC(=O)[C@@H](NC(=O)[C@H](Cc1ccccc1)NC(=O)[C@@H](NC(=O)CNC(=O)[C@H](CCC(N)=O)NC(=O)[C@@H](CO)NC(=O)[C@@H](N)Cc1c[nH]cn1)[C@@H](C)O)[C@@H](C)O)C(=O)N[C@@H](CC(=O)O)C(=O)N[C@@H](CCC(=O)O)C(=O)N[C@@H](CCCNC(=N)N)C(=O)N[C@@H](C)C(=O)N[C@@H](C)C(=O)N[C@@H](CCC(N)=O)C(=O)N[C@@H](CC(=O)O)C(=O)N[C@@H](Cc1ccccc1)C(=O)N[C@H](C(=O)N[C@@H](CCC(N)=O)C(=O)N[C@@H](Cc1c[nH]c2ccccc12)C(=O)N[C@@H](CC(C)C)C(=O)N[C@@H](CC(C)C)C(=O)N[C@@H](CC(=O)O)C(=O)N[C@H](C(=O)N[C@@H](CCCCN=[N+]=[N-])C(N)=O)[C@@H](C)O)C(C)C` [PEP73], for which the GCGR/GLP1R ratio in experiment [1] is on record as 0.6.
As to “HsQGTGTSD-K(γEγEC16)SKYLDURAAQDFV-Nle(ϵN3)-WLLDT-NH2 [PEP7]”, in experiment [1], the GCGR/GLP1R ratio stood at 0.2.
